Each structure is given as a SMILES string. Some results are limits rather than exact numbers.

For two molecules, pest or weed control and inhibition results are on record in patent publication US20230055705A1, “SUBSTITUTED THIOPHENE CARBOXAMIDES AND DERIVATIVES THEREOF” (Bayer Aktiengesellschaft, priority 2019, published 2023).

In experiment [1] the test system is Pseudomonas syringae pv. tomato. As to the kind of experiment: In vivo preventive test on Pseudomonas syringae pv. tomato (bacterial speck on tomato). Conditions: evaluated 5 or 6 days after inoculation, read-out: efficacy. The method, boiled down: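 Young tomato plants sprayed with compound in acetone/DMSO/Tween diluted in water; solvent-only controls. Inoculated 72 h later by spraying leaves with bacterial suspension; 4 days saturated atmosphere then 1–2 days at 70–80% RH, 22 °C day/20 °C night. Efficacy scored 5–6 days post-inoculation, 0% = control, 100% = no disease.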

Another experiment has as its system Alternaria alternata. The experiment in a line: Alternaria alternata in vitro cell test. Format: cell-based. Conditions: 120 h, 20 ppm of active ingredient, 5 days incubation, read-out: efficacy (inhibition of fungal growth). A digest of the protocol:
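Growth inhibition compares absorbance of treated versus untreated wells after 5 days' culture of A. alternata spore suspensions with compound, covering germination and mycelium growth. Medium was glucose, mycological peptone and yeast extract; final DMSO ≤1%.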

In experiment [2] the test system is Colletotrichum lindemuthianum. The experiment in a line: Colletotrichum lindemuthianum in vitro cell test. Format: cell-based. The note with it: 144 h, 20 ppm of active ingredient, 6 days incubation, read-out: efficacy (inhibition of fungal growth). The method, then: • Solvent: DMSO • Culture medium: 14.6 g anhydrous D-glucose (VWR), 7.1 g Mycological Peptone (Oxoid), 1.4 g granulated Yeast Extract (Merck), QSP 1 liter • Inoculum: spores suspension
Fungicides were solubilized in DMSO and the solution used to prepare the required range of concentrations. The final concentration of DMSO used in the assay was ≤[…]1%.
A spore suspension of C. lindemuthianum was prepared and diluted to the desired spore density.
Fungicides were evaluated for their ability to inhibit spores germination and mycelium growth in liquid culture assay. The compounds were added in the desired concentration to the culture medium with spores. After 6 days incubation, fungi-toxicity of compounds was determined by spectrometric measurement of mycelium growth. Inhibition of fungal growth was determined by comparing the absorbance values in wells containing the fungicides with the absorbance in control wells without fungicides.

The test system of a further experiment is Peronospora parasitica. As to the kind of experiment: In vivo preventive test on Peronospora parasitica (Crucifer downy mildew). Conditions: Hyaloperonospora parasitica, in Brassica oleracea, 120 h, cabbage, evaluated 5 days after inoculation, read-out: efficacy; for pest or weed control at 31 ppm: 31 ppm of active ingredient; for pest or weed control at 125 ppm: 125 ppm of active ingredient. The method, boiled down: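 Young cabbage plants were sprayed with compound in acetone/DMSO/Tween diluted with water, then inoculated 72 h later with a Peronospora parasitica spore suspension. Plants were kept 5 days at 20 °C and 100% RH. Efficacy was scored with 0% equal to solvent-treated controls and 100% meaning no disease.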

The subject of experiment [3] is Pseudomonas syringae pv. tomato. The experiment in a line: Pseudomonas syringae pv. tomato in vitro cell test. Format: cell-based. The note with it: 20 ppm of active ingredient, 24 h incubation, read-out: efficacy (inhibition of bacteria growth). A digest of the protocol:
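Compounds in 1% final DMSO were added to LB broth containing OD-adjusted bacterial suspension. After 24 h, absorbance measured growth, and inhibition was expressed relative to wells lacking active ingredient.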

In experiment [4] the test system is Colletotrichum lindemuthianum. The experiment in a line: In vivo preventive test on Colletotrichum lindemuthianum (Antrachnose on bean). The note with it: 144 h, inoculation 72 h after spraying, evaluated 6 days after inoculation, read-out: efficacy. The method, boiled down: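 Young bean plants sprayed preventively with compound in acetone/DMSO/Tween diluted in water, then spore-inoculated 72 h later. Incubation 24 h at 20° C./100% RH, then 5 days at 20° C./90% RH; scored 6 days post-inoculation as % efficacy (0% = solvent-treated control, 100% = no disease).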

For another experiment, the system named is Uromyces appendiculatus. As to the kind of experiment: In vivo preventive test on Uromyces appendiculatus (bean rust). Conditions: 240 h, evaluated 10 days after inoculation, read-out: efficacy; for pest or weed control at 125 ppm: 125 ppm of active ingredient. A digest of the protocol:
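Young bean plants sprayed with compound in acetone/DMSO/Tween diluted in water, inoculated 72 h later with U. appendiculatus spore suspension. Held 24 h at 20 °C, 100% RH, then 9 days at 20 °C, 70-80% RH. Efficacy scored 10 days post-inoculation versus solvent-treated controls (0% = control, 100% = no disease).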

The test system of experiment [5] is Xanthomonas campestris pv. campestris. As to the kind of experiment: Xanthomonas campestris pv. campestris in vitro cell test. Format: cell-based. The note with it: 20 ppm of active ingredient, 24 h incubation, read-out: efficacy (inhibition of bacteria growth). The method, boiled down: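 Liquid-culture growth test in LB broth, with compound dissolved in DMSO (≤1% final) and added to an OD-adjusted bacterial inoculum. Absorbance after 24 h incubation was compared with wells lacking active ingredient to give inhibition.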

On to `CCOC(=O)C(CC(F)(F)F)NC(=O)c1sc(Cl)c(Cl)c1Cl` (centres unmarked) [I.048], for which the pest or weed control at 500 ppm in experiment [1] (500 ppm of active ingredient) fell in the range of 70 to 79%; in the experiment on Peronospora parasitica (500 ppm of active ingredient), 90 to 100%; in experiment [4] (500 ppm of active ingredient) it was 80 to 89%; in the experiment on Uromyces appendiculatus (500 ppm of active ingredient), 90 to 100%. The inhibition at 20 ppm (in the experiment with Alternaria alternata; in experiment [2]; in experiment [3]; in experiment [5]) was not above 30% throughout. The pest or weed control at 31 ppm with Peronospora parasitica lay in the range of 90 to 100%. For the same molecule, the pest or weed control at 125 ppm with Peronospora parasitica and in the experiment with Uromyces appendiculatus was 90 to 100% in each case.
As for `CCOC(=O)C(CSC)NC(=O)c1sc(Cl)c(Cl)c1Cl` (centres unmarked) [I.143], the pest or weed control at 31 ppm fell in the range of 90 to 100% in experiment [1] (31 ppm of active ingredient), 90 to 100% with Peronospora parasitica and 70 to 79% in experiment [4] (31 ppm of active ingredient). Moreover, the inhibition at 20 ppm (in the experiment on Alternaria alternata; in experiment [2]; in experiment [3]; in experiment [5]) was not above 30% throughout. Further, the pest or weed control at 125 ppm in the experiment on Peronospora parasitica and in the experiment with Uromyces appendiculatus was 90 to 100% throughout.
